Reference: patent publication US12371454B2, “Cyclic peptide compound having Kras inhibitory action” (priority 2019, dated 2025)
Starred links: 1 amine or outer side, 2 acyl side, 3 side chain; linkers in the order of their positions; H or OH if unused. Positions of bridges follow the written chain, without caps; N, C: chain ends. Non-standard residues stand in square brackets, D forms with d. Residues, ends and D or L forms follow the SMILES beside them. *: point of attachment. hPhe(3-Cl-4-CF3) = N[C@@H](CCc1ccc(C(F)(F)F)c(Cl)c1)C(=O)O; hPhe(3-F,4-CF3) = N[C@@H](CCc1ccc(C(F)(F)F)c(F)c1)C(=O)O; hPhe(4-CF3) = N[C@@H](CCc1ccc(C(F)(F)F)cc1)C(=O)O; NMePhe(4-Cl) = CN[C@@H](Cc1ccc(Cl)cc1)C(=O)O; NMePhe(4-Me) = CN[C@@H](Cc1ccc(C)cc1)C(=O)O; NMePhe(3-F) = CN[C@@H](Cc1cccc(F)c1)C(=O)O; NMeMet(O2) = CN[C@@H](CCS(C)(=O)=O)C(=O)O; NMedβ3hAla = C[C@H](CC(=O)[*:2])N(C)[*:1]; Abu(4,4,4-F3) = N[C@@H](CC(F)(F)F)C(=O)O; Phe(3-Cl) = N[C@@H](Cc1cccc(Cl)c1)C(=O)O; NMeGly(cPent) = CN[C@H](C(=O)O)C1CCCC1; Phe(3-I) = N[C@@H](Cc1cccc(I)c1)C(=O)O; Pro(4,4-F2) = O=C(O)[C@@H]1CC(F)(F)CN1; NMeCha = CN[C@@H](CC1CCCCC1)C(=O)O; X2 = C=CC[C@](C)(N[*:1])C(=O)[*:2]; Azetidine(3,3-F2) = FC1(F)CN(*)C1; NMeCba = CN[C@@H](CC1CCC1)C(=O)O; NMeChg = CN[C@H](C(=O)O)C1CCCCC1; NMeF = CN[C@@H](Cc1ccccc1)C(=O)O; N(CH2CH2)2CF2 = FC1(F)CCN(*)CC1; NMeβAla = CN(CCC(=O)[*:2])[*:1]; NMeD = CN[C@@H](CC(=O)O)C(=O)O; CH2CONHtBu = CC(C)(C)NC(=O)C*; NMeL = CN[C@@H](CC(C)C)C(=O)O; NMeV = CN[C@H](C(=O)O)C(C)C; Trifluoroethyl = FC(F)(F)C*; d(β3hA) = C[C@@H](N)CC(=O)O; NMeS = CN[C@@H](CO)C(=O)O; Pip = O=C(O)[C@@H]1CCCCN1; Ac6c = NC1(C(=O)O)CCCCC1; NMeA = CN[C@@H](C)C(=O)O; Nle = CCCC[C@H](N)C(=O)O; Piperidide = C1CCN(*)CC1; Pyrrolidide = C1CCN(*)C1; Ac5c = NC1(C(=O)O)CCCC1; Aze = O=C(O)[C@@H]1CCN1; Abu = CC[C@H](N)C(=O)O; Ac4c = NC1(C(=O)O)CCC1; CH2CMe2OH = CC(C)(O)C*; Cyclobutyl = C1CC(*)C1; NEtG = CCNCC(=O)O; βAla = NCCC(=O)O; Sar = CNCC(=O)O

Molecular target: T1, Kras and SOS1 (biotin-tagged human Kras loaded with GDP, His-tagged human SOS1) (Homo sapiens, UniProt P01116, G12D)
T1 construct: made in house; host or cells: E. coli (stated for Kras only)
T1 sequence (P01116 1-188 isoform P01116-2 G12D): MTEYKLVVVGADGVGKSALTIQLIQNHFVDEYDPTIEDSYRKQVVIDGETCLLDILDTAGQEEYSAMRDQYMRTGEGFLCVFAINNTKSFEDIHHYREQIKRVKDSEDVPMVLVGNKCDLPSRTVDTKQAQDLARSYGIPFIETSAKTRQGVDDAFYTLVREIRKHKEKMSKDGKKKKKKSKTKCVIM
Test: Protein-protein interaction inhibition between Kras and SOS1 (KrasGl2D-SOS PPI) using AlphaScreen
Format: binding
Details: AlphaScreen; biotin-tagged human Kras loaded with GDP, His-tagged human SOS1; read-out: KRAS G12D-SOS PPI IC50
Summary of the method: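 Donor beads (nickel) hold His-SOS1; acceptor beads (streptavidin) hold biotin-Kras bound to GDP. Signal measured at 520-620 nm following 680 nm excitation.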

Row | Compound | IC50 [nM]
1 | CC[C@H](C)[C@@H]1NC(=O)[C@H](CC(C)C)N(C)C(=O)C[C@@H](C(=O)N2CCCCC2)N(C)C(=O)[C@H](COCC(F)(F)F)N(C)C(=O)C2(CCCC2)NC(=O)[C@@H]2CCCN2C(=O)[C@H](CCc2ccc(C(F)(F)F)c(Cl)c2)NC(=O)CN(C)C(=O)[C@H](CC2CCCCC2)N(C)C(=O)CN(C)C(=O)CN(C)C1=O [Compound 208] ([NMeL]I[Sar][Sar][NMeCha][Sar][hPhe(3-Cl-4-CF3)]P[Ac5c][NMeS](Trifluoroethyl)[NMeD]-Piperidide; lactam N-11) | 120
2 | CC[C@H](C)[C@@H]1NC(=O)[C@H](CC(C)C)N(C)C(=O)C[C@@H](C)NC(=O)[C@H](C(C)C)N(C)C(=O)C2(CCCC2)NC(=O)[C@@H]2CCCN2C(=O)[C@H](CCc2ccc(C(F)(F)F)c(Cl)c2)NC(=O)CN(C)C(=O)[C@H](CC2CCCCC2)N(C)C(=O)CN(C)C(=O)CN(CC)C1=O [Compound 210] (cyclo([Ac5c][NMeV][d(β3hA)][NMeL]I[NEtG][Sar][NMeCha][Sar][hPhe(3-Cl-4-CF3)]P)) | 80
3 | CC[C@H](C)[C@@H]1NC(=O)[C@@H]2CCCCN2C(=O)C[C@@H](C)NC(=O)[C@H](CC(C)C)N(C)C(=O)C2(CCCC2)NC(=O)[C@H](CC(C)C)N(C)C(=O)[C@H](CCc2ccc(C(F)(F)F)c(Cl)c2)NC(=O)CN(C)C(=O)[C@H](CC2CCCCC2)N(C)C(=O)CN(C)C(=O)CN(C)C1=O [Compound 213] (cyclo([Ac5c][NMeL][d(β3hA)][Pip]I[Sar][Sar][NMeCha][Sar][hPhe(3-Cl-4-CF3)][NMeL])) | 48
4 | CC[C@H](C)[C@@H]1NC(=O)[C@H](CC(C)C)N(C)C(=O)C[C@@H](C(=O)N(C)C)N(C)C(=O)[C@H](C(C)C)N(C)C(=O)C2(CCCC2)NC(=O)[C@H](CC(=O)N2CCC(F)(F)CC2)N(C)C(=O)[C@H](CCc2ccc(C(F)(F)F)c(Cl)c2)NC(=O)CN(C)C(=O)[C@H](CC2CCCCC2)N(C)C(=O)CN(C)C(=O)CN(C)C1=O [Compound 218] ([NMeL]I[Sar][Sar][NMeCha][Sar][hPhe(3-Cl-4-CF3)][NMeD](N(CH2CH2)2CF2)[Ac5c][NMeV][NMeD]-NMe2; lactam N-11) | 1.9
5 | CC[C@H](C)[C@@H]1NC(=O)[C@H](CC(C)C)N(C)C(=O)C[C@@H](C(=O)N(C)C)N(C)C(=O)[C@H](C2CCCC2)N(C)C(=O)[C@H](CC(F)(F)F)NC(=O)[C@H](CC(=O)N2CC(F)(F)C2)N(C)C(=O)[C@H](CCc2ccc(C(F)(F)F)c(Cl)c2)NC(=O)CN(C)C(=O)[C@H](CC2CCCCC2)N(C)C(=O)[C@@H]2CCN2C(=O)[C@H](C)N(C)C1=O [Compound 222] ([NMeL]I[NMeA][Aze][NMeCha][Sar][hPhe(3-Cl-4-CF3)][NMeD](Azetidine(3,3-F2))[Abu(4,4,4-F3)][NMeGly(cPent)][NMeD]-NMe2; lactam N-11) | 20
6 | CC[C@H](C)[C@@H]1NC(=O)[C@H](C)N(C)C(=O)C[C@@H](C(=O)N2CCCC2)NC(=O)[C@H](C(C)C)N(C)C(=O)[C@H](Cc2ccccc2)N(C)C(=O)[C@H](Cc2ccccc2)NC(=O)[C@H](Cc2cccc(Cl)c2)NC(=O)CN(C)C(=O)[C@H](Cc2ccc(Cl)cc2)N(C)C(=O)CN(C)C(=O)CN(CC)C1=O [Compound 224] ([NMeA]I[NEtG][Sar][NMePhe(4-Cl)][Sar][Phe(3-Cl)]F[NMeF][NMeV]D-Pyrrolidide; lactam N-11) | 230
7 | CC(C)C[C@H]1C(=O)N[C@@H](COC2CCC2)C(=O)N(C)CC(=O)N(C)CC(=O)N(C)[C@@H](CC2CCCCC2)C(=O)N(C)CC(=O)N[C@@H](CCc2ccc(C(F)(F)F)c(Cl)c2)C(=O)N2CCC[C@H]2C(=O)NC2(CCCC2)C(=O)N(C)[C@@H](C2CCCCC2)C(=O)N(C)[C@H](C(=O)N2CCCCC2)CC(=O)N1C [Compound 226] ([NMeL]S(Cyclobutyl)[Sar][Sar][NMeCha][Sar][hPhe(3-Cl-4-CF3)]P[Ac5c][NMeChg][NMeD]-Piperidide; lactam N-11) | 3.5
8 | CC[C@H](C)[C@@H]1NC(=O)[C@H](CC2CCC2)N(C)C(=O)C[C@@H](C)NC(=O)[C@H](C(C)C)N(C)C(=O)C2(CCCC2)NC(=O)[C@@H]2CCCN2C(=O)[C@H](CCc2ccc(C(F)(F)F)c(Cl)c2)NC(=O)CN(C)C(=O)[C@H](CC2CCCCC2)N(C)C(=O)CN(C)C(=O)CN(C)C1=O [Compound 230] (cyclo([Ac5c][NMeV][d(β3hA)][NMeCba]I[Sar][Sar][NMeCha][Sar][hPhe(3-Cl-4-CF3)]P)) | 39
9 | CC[C@H](C)[C@@H]1NC(=O)[C@H](CC(C)C)N(C)C(=O)C[C@@H](C)NC(=O)[C@H](CC(C)C)N(C)C(=O)C2(CCCCC2)NC(=O)[C@@H]2CCCN2C(=O)[C@H](CCc2ccc(C(F)(F)F)c(F)c2)NC(=O)CN(C)C(=O)[C@H](CC2CCCCC2)N(C)C(=O)CN(C)C(=O)CN(C)C1=O [Compound 231] (cyclo([Ac6c][NMeL][d(β3hA)][NMeL]I[Sar][Sar][NMeCha][Sar][hPhe(3-F,4-CF3)]P)) | 120
10 | CCCC[C@@H]1NC(=O)[C@H](Cc2cccc(I)c2)NC(=O)CN(C)C(=O)[C@H](Cc2ccc(C)cc2)N(C)C(=O)CN(C)C(=O)CN(C)C(=O)[C@H]([C@@H](C)CC)NC(=O)[C@H](CC(C)C)N(C)C(=O)C[C@@H](C(=O)N2CCCCC2)N(C)C(=O)[C@H](CC(C)C)NC(=O)[C@H](C)N(C)C1=O [Compound 232] ([NMeL]I[Sar][Sar][NMePhe(4-Me)][Sar][Phe(3-I)][Nle][NMeA]L[NMeD]-Piperidide; lactam N-11) | 20
11 | CC[C@H](C)[C@@H]1NC(=O)[C@H](C)N(C)C(=O)C[C@@H](C(=O)N2CCCC2)NC(=O)[C@H](CC(C)C)N(C)C(=O)[C@H](Cc2ccccc2)N(C)C(=O)[C@H](COCC(=O)NC(C)(C)C)NC(=O)[C@H](CCc2ccc(C(F)(F)F)cc2)NC(=O)CN(C)C(=O)[C@H](Cc2ccc(Cl)cc2)N(C)C(=O)CN(C)C(=O)CN(C)C1=O [Compound 233] ([NMeA]I[Sar][Sar][NMePhe(4-Cl)][Sar][hPhe(4-CF3)]S(CH2CONHtBu)[NMeF][NMeL]D-Pyrrolidide; lactam N-11) | 66
12 | CC[C@H](C)[C@@H]1NC(=O)[C@H](CC(C)C)N(C)C(=O)C[C@@H](C(=O)N2CCCCC2)N(C)C(=O)[C@H](C(C)C)N(C)C(=O)C2(CCCC2)NC(=O)[C@@H]2CCCN2C(=O)[C@H](CCc2ccc(C(F)(F)F)c(Cl)c2)NC(=O)CN(C)C(=O)[C@H](CCS(C)(=O)=O)N(C)C(=O)[C@@H]2CCN2C(=O)[C@H](C)N(C)C1=O [Compound 235] ([NMeL]I[NMeA][Aze][NMeMet(O2)][Sar][hPhe(3-Cl-4-CF3)]P[Ac5c][NMeV][NMeD]-Piperidide; lactam N-11) | 11
13 | CC[C@H](C)[C@@H]1NC(=O)CCNC(=O)[C@H](Cc2cccc(F)c2)N(C)C(=O)[C@H](C2CCCCC2)N(C)C(=O)C2(CCCC2)NC(=O)[C@@H]2CCCN2C(=O)[C@H](CCc2ccc(C(F)(F)F)c(Cl)c2)NC(=O)CN(C)C(=O)[C@H](CC2CCCCC2)N(C)C(=O)CN(C)C(=O)CN(C)C1=O [Compound 237] (cyclo([Ac5c][NMeChg][NMePhe(3-F)][βAla]I[Sar][Sar][NMeCha][Sar][hPhe(3-Cl-4-CF3)]P)) | 42
14 | CC[C@@H]1NC(=O)[C@H](CC(=O)N2CCC(F)(F)CC2)N(C)C(=O)[C@H](CCc2ccc(C(F)(F)F)c(Cl)c2)NC(=O)CN(C)C(=O)[C@H](CC2CCCCC2)N(C)C(=O)CN(C)C(=O)CN(C)C(=O)[C@H]([C@@H](C)CC)NC(=O)[C@H](CC(C)C)N(C)C(=O)C[C@@H](C(=O)N2CCCCC2)N(C)C(=O)[C@H](C(C)C)N(C)C1=O [Compound 240] ([NMeL]I[Sar][Sar][NMeCha][Sar][hPhe(3-Cl-4-CF3)][NMeD](N(CH2CH2)2CF2)[Abu][NMeV][NMeD]-Piperidide; lactam N-11) | 140
15 | CC[C@H](C)[C@@H]1NC(=O)[C@H](CC(C)C)N(C)C(=O)C[C@@H](C)N(C)C(=O)[C@H](C2CCCCC2)N(C)C(=O)C2(CCC2)NC(=O)[C@@H]2CC(F)(F)CN2C(=O)[C@H](CCc2ccc(C(F)(F)F)c(Cl)c2)NC(=O)CN(C)C(=O)[C@H](CC2CCCCC2)N(C)C(=O)CN(C)C(=O)CN(C)C1=O [Compound 241] (cyclo([Ac4c][NMeChg][NMedβ3hAla][NMeL]I[Sar][Sar][NMeCha][Sar][hPhe(3-Cl-4-CF3)][Pro(4,4-F2)])) | 18
16 | C=CC[C@]1(C)NC(=O)[C@@H]2CCCN2C(=O)[C@H](CCc2ccc(C(F)(F)F)c(Cl)c2)NC(=O)CN(C)C(=O)[C@H](CC2CCCCC2)N(C)C(=O)CN(C)C(=O)CN(C)C(=O)[C@H]([C@@H](C)CC)NC(=O)[C@H](CC(C)C)N(C)C(=O)C[C@@H](C)NC(=O)[C@H](C(C)C)N(C)C1=O [Compound 242] (cyclo(I[Sar][Sar][NMeCha][Sar][hPhe(3-Cl-4-CF3)]P[X2][NMeV][d(β3hA)][NMeL])) | 27
17 | CC[C@H](C)[C@@H]1NC(=O)CCN(C)C(=O)[C@H](COCC(C)(C)O)N(C)C(=O)[C@H](C2CCCC2)N(C)C(=O)C2(CCCC2)NC(=O)[C@@H]2CCCN2C(=O)[C@H](CCc2ccc(C(F)(F)F)c(Cl)c2)NC(=O)CN(C)C(=O)[C@H](CC2CCCCC2)N(C)C(=O)CN(C)C(=O)CN(C)C1=O [Compound 244] (cyclo([Ac5c][NMeGly(cPent)][NMeS](CH2CMe2OH)[NMeβAla]I[Sar][Sar][NMeCha][Sar][hPhe(3-Cl-4-CF3)]P)) | 140
